Results on 11 compounds are retold here after ChEMBL document CHEMBL1201862, “PubChem BioAssay data set” (2004).

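Grown in 96-well plates, cells were treated for 48 hours with each compound at five concentrations. Insufficient inhibition: endpoint recorded as highest concentration tested. GI50 is the concentration that inhibits growth by half.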 Calls of active or inactive are those of the source. Cut-off read from the data, not from the text of the source: active = GI50 up to about 1.1 µM and inactive = higher.

Assay in all cases: NCI tumour cell line growth inhibition, 48 h
The subject of experiment [1] is A549.
Experiment [2] relates to ACHN.
Experiment [3] concerns COLO 205.
Experiment [4] concerns DU-145.
Experiment [5] has as its system HCC 2998.
Experiment [6] has as its system HT-29.
In experiment [7] the test system is IGROV-1.
Experiment [8] concerns MDA-MB-231.
For experiment [9], the system named is NCI-H226.
Experiment [10] has as its system NCI/ADR-RES.
Experiment [11] has as its system OVCAR-3.
Experiment [12] concerns OVCAR-4.
In experiment [13] the test system is SF-295.
In experiment [14] the test system is SK-MEL-5.
The test system of experiment [15] is SNB-75.
For experiment [16], the system named is SR.
In experiment [17] the test system is SW-620.
Experiment [18] relates to TK-10.
The test system of experiment [19] is Malme-3M.
Experiment [20] concerns SF-268.

`CC(C)(C)OC(=O)CN1CCNCCN(CC(=O)OC(C)(C)C)CCNCC1`: the GI50 in experiment [1] was 82 µM (inactive); in experiment [2] it was > 100 µM (inactive); in [3], > 100 µM (inactive); in experiment [4], > 100 µM (inactive); in experiment [5] it was > 100 µM (inactive); in [6], 33.3 µM (inactive). In addition, the GI50 in [7], in experiment [8], in experiment [9], in experiment [10], in experiment [11] and in experiment [12] was > 100 µM (inactive) each time. In addition, the GI50 was > 100 µM (inactive) in [13]; 50.6 µM (inactive) in experiment [14]; > 100 µM (inactive) in experiment [15]; 26.9 µM (inactive) in experiment [16]; > 100 µM (inactive) in experiment [17]; > 100 µM (inactive) in experiment [18].

For the compound `O=C1O/C(=C\C=C\CO)C=C1/C=C/CO` [LISSOCLINOLIDE], the GI50 was 36.4 µM (inactive) in [1]; 24.2 µM (inactive) in experiment [2]; 2.23 µM (inactive) in experiment [3]; 21 µM (inactive) in [4]; 23 µM (inactive) in experiment [6]; 16 µM (inactive) in [7]. The GI50 in [8] was 21.3 µM (inactive); in experiment [19], 13.8 µM (inactive); in experiment [9], 36.5 µM (inactive); in experiment [10] it was 33.3 µM (inactive); in [11] it was 24.2 µM (inactive); in [12], 45.5 µM (inactive). For the same compound, the GI50 in experiment [20] was 24.5 µM (inactive); in [13] it was 39 µM (inactive); in [14] it was 22.1 µM (inactive); in [15] it was > 100 µM (inactive); in experiment [16], 34.9 µM (inactive); in [17], 18.2 µM (inactive). Besides, the GI50 in experiment [18] is 19.1 µM (inactive).

`CC(=O)Oc1cc(OC(C)=O)c2c(C)cc(=O)oc2c1`: the GI50 was > 100 µM (inactive) in experiment [1]; > 100 µM (inactive) in experiment [2]; > 100 µM (inactive) in [3]; > 100 µM (inactive) in experiment [4]; > 100 µM (inactive) in experiment [6]; 95.7 µM (inactive) in experiment [7]. In addition, the GI50 in experiment [8], in experiment [19], in experiment [9], in experiment [10], in experiment [11] and in experiment [12] was > 100 µM (inactive) in each case. For the same compound, the GI50 in experiment [20] is > 100 µM (inactive); in experiment [13], > 100 µM (inactive); in [14], > 100 µM (inactive); in experiment [15] it was 66.8 µM (inactive); in experiment [16], > 100 µM (inactive); in experiment [17], > 100 µM (inactive). For the same compound, the GI50 in experiment [18] was 97.7 µM (inactive).

For `OC(Cc1ccccc1)(Cc1ccccc1)c1ccccc1`, the GI50 was 19.5 µM (inactive) in [1]; 18.4 µM (inactive) in [2]; 17.7 µM (inactive) in experiment [4]; 15.9 µM (inactive) in [6]; 16.3 µM (inactive) in experiment [7]; 19 µM (inactive) in [8]. For the same compound, the GI50 in experiment [19] was 13.1 µM (inactive); in experiment [9], 18.4 µM (inactive); in [10], 23 µM (inactive); in experiment [11], 18.2 µM (inactive); in experiment [12], 16.9 µM (inactive); in experiment [20], 14.9 µM (inactive). In addition, the GI50 was 19.3 µM (inactive) in [13]; 18 µM (inactive) in experiment [14]; 25.1 µM (inactive) in experiment [16]; 22.2 µM (inactive) in [17]; 19.8 µM (inactive) in experiment [18].

On to `COc1ccc2c(c1)C1OCCNC1CC2` (configuration not stated), for which the GI50 in experiment [1], in experiment [2], in experiment [3], in experiment [4], in [6] and in experiment [7] was > 100 µM (inactive) each time. The GI50 in experiment [8], in experiment [19], in experiment [9], in [10], in experiment [20] and in [13] was > 100 µM (inactive) throughout. In addition, the GI50 in experiment [14], in [15], in [16], in experiment [17] and in experiment [18] was > 100 µM (inactive) in each case.

Consider `CCCCCC(=O)N[C@@H](c1ccccc1)C(O)C(=O)OC1C[C@@]2(O)C(OC(=O)c3ccccc3)C3[C@](C)(C(=O)[C@H](O)C(=C1C)C2(C)C)C(OC1OCC(O)C(O)C1O)C[C@H]1OC[C@@]31OC(C)=O` (some centres not stated), for which the GI50 in experiment [1] was 7.24 µM (inactive); in [2] it was > 89.1 µM (inactive); in experiment [3], 0.665 µM (active); in experiment [4], 2.88 µM (inactive); in experiment [5], 1.6 µM (inactive); in experiment [6] it was 1.19 µM (inactive). The GI50 is 3.99 µM (inactive) in [7]; 67.6 µM (inactive) in experiment [8]; > 100 µM (inactive) in experiment [9]; > 100 µM (inactive) in [10]; 0.706 µM (active) in experiment [11]; > 100 µM (inactive) in experiment [12]. In addition, the GI50 in [20] is 2.32 µM (inactive); in experiment [13] it was 21.2 µM (inactive); in experiment [14], 1.9 µM (inactive); in experiment [15], 0.147 µM (active); in experiment [16] it was 2.41 µM (inactive); in experiment [17], 16.1 µM (inactive). Further, in experiment [18], the GI50 is 63.2 µM (inactive).

Take `CC1=CC(=O)C(=C(C)C)CC1`: the GI50 in experiment [1] is > 100 µM (inactive); in experiment [2] it was > 100 µM (inactive); in experiment [3] it was > 10 µM (inactive); in [4], > 100 µM (inactive); in [6] it was > 100 µM (inactive); in experiment [7] it was > 100 µM (inactive). Also, the GI50 in [8], in experiment [19], in experiment [9], in experiment [10], in experiment [11] and in experiment [12] was > 100 µM (inactive) throughout. Moreover, the GI50 in [20] was > 100 µM (inactive); in [13] it was > 100 µM (inactive); in experiment [14], > 100 µM (inactive); in [15] it was > 100 µM (inactive); in [16], 48 µM (inactive); in experiment [18], > 100 µM (inactive).

Take `NS(=O)(=O)c1cc(Br)c(/N=N\c2ccc(O)c3ncccc23)c(Br)c1`: the GI50 in experiment [1] was 18.5 µM (inactive); in experiment [2], 4.34 µM (inactive); in [3], > 100 µM (inactive); in experiment [4], 47 µM (inactive); in experiment [6], > 100 µM (inactive); in experiment [7], 11 µM (inactive). Further, the GI50 was 51.1 µM (inactive) in experiment [8]; 13.5 µM (inactive) in experiment [19]; 45 µM (inactive) in experiment [9]; 13.2 µM (inactive) in experiment [10]; 54.6 µM (inactive) in experiment [11]; 43.6 µM (inactive) in experiment [12]. Further, the GI50 is 15.9 µM (inactive) in experiment [20]; 42.6 µM (inactive) in [13]; 30.7 µM (inactive) in experiment [14]; 21.7 µM (inactive) in experiment [15]; 9.46 µM (inactive) in experiment [16]; 34.8 µM (inactive) in [17]. The GI50 in [18] was 22.3 µM (inactive).

Consider `COc1cc([C@@H]2OC[C@@H]3C(c4cc(OC)c5c(c4)OCO5)OC[C@@H]32)cc(OC)c1OC` (some centres not stated), for which the GI50 in [1] was > 100 µM (inactive); in [2] it was > 100 µM (inactive); in experiment [3], > 100 µM (inactive); in [4], > 100 µM (inactive); in experiment [5] it was > 100 µM (inactive); in experiment [6], 42.2 µM (inactive). Besides, the GI50 in [7] is > 100 µM (inactive); in [8], > 100 µM (inactive); in experiment [9], > 100 µM (inactive); in experiment [10], 31.6 µM (inactive); in [11], > 100 µM (inactive); in experiment [12], 92.5 µM (inactive). For the same compound, the GI50 was > 100 µM (inactive) in experiment [20]; > 100 µM (inactive) in [13]; 26.9 µM (inactive) in experiment [14]; > 100 µM (inactive) in experiment [15]; 89.1 µM (inactive) in experiment [16]; > 100 µM (inactive) in experiment [17]. Besides, in experiment [18], the GI50 is > 100 µM (inactive).

For `O=C1OC[C@@H]2[C@@H](O)CCCCCN12`, the GI50 in experiment [1], in [2], in [3], in [4], in [5] and in experiment [6] was > 100 µM (inactive) each time. For the same compound, the GI50 in [7], in [8], in experiment [9], in [10], in experiment [11] and in [12] was > 100 µM (inactive) each time. The GI50 in experiment [13], in experiment [14], in [15], in [16], in [17] and in [18] was > 100 µM (inactive) in each case.

`O=C(O)CNCP(=O)(O)O` [GLYPHOSATE]: the GI50 in experiment [1], in experiment [2], in experiment [3], in [4], in [6] and in [7] was > 100 µM (inactive) throughout. Moreover, the GI50 in experiment [8], in experiment [19], in experiment [9], in experiment [10], in experiment [11] and in [12] was > 100 µM (inactive) in each case. Besides, the GI50 in [20], in experiment [13], in [14], in experiment [15], in [16] and in experiment [17] was > 100 µM (inactive) in each case. In experiment [18], the GI50 is > 100 µM (inactive).
